{
  "source": "patent US20220177587A1",
  "about": "“METHODS AND USES OF VARIANT CD80 FUSION PROTEINS AND RELATED CONSTRUCTS” (Alpine Immune Sciences, Inc., priority 2018, published 2022)",
  "key": {"Monkey PK model": {"assay": "Monkey PK model", "assay_type": "in vivo, cynomolgus monkey", "settings": "monkey PK model estimate", "from_the_text": "A PK model was designed as a two compartment model with intercompartmental distribution (Q) between the first compartment (Central Compartment, V1) and the second compartment (Peripheral Compartment, V2). To capture intraperitoneal (IP) or subcutaneous (SC) injection routes, a third compartment (Depot Compartment) was included with a first-order rate constant (Ka) linking the third compartment uni-directionally to the first compartment. The model also included a constant F to account for loss in the amount of drug available to diffuse from the third compartment (Depot Compartment) to the first compartment (Central Compartment, V1) due to IP or SC injection. The total amount of available drug in the third compartment (Depot Compartment) is described as F×Dose. For intravenous injections (IV), the third compartment (Depot Compartment) was omitted.\nFor monkeys, linear clearance from the first compartment (Central Compartment, V1) was assumed."}, "[1]": {"test_system": "huPD-L1-expressing MC38 tumors", "assay": "huPD-L1 MC38 tumor model, IP or IT delivery", "assay_type": "in vivo, mouse", "description": "The MC38 cell line was transduced with human PD-L1 (huPD-L1) Subconfluent cells (˜80% confluent) were harvested on the day of implantation (study day 0), washed twice and brought to a final concentration of 15×10^6 cells/mL in DPBS. Female C57BL/6NJ mice (Jackson Labs, USA) were implanted subcutaneously with approximately 1.5×10^6 cells (0.1 mL) in the right mid-flank region.\nOn day 7, mice were randomized into six groups, with each group having a similar mean tumor volume (46.6 mm^3).\nTumor volume was measured as described in Example 21 to assess anti-tumor activity. Median tumor growth curves among individual treated mice over time were plotted.\nOn day 11 post-tumor cell implant and prior to dosing of test articles, five mice from each of Group 1-4 and Group 6 were sacrificed, and the tumors were harvested, weighed and processed for ex vivo tumor analysis. The MC38 cells at time of implant and tumors harvested from a subset of mice on day 11 by enzymatic digestion were evaluated for expression of huPD-L1 or human IgG (to detect Fc of cell-bound test molecules) by flow cytometry. The percent positive and median fluorescent intensity (MFI) of huPD-L1 and huIgG were quantified on the CD45-negative subset of tumor cells.\nTumors at day 11 were also evaluated for CD8+ T cells and for antigen-specific CD8+ T cells within the CD3+ cell population. p15E is an MHC class I restricted T cell antigen expressed in the MC38 tumor cell lines derived from C57BL/6 mice. A mouse MHC class I p15E tetramer labeled with PE (MBL International Corp.) was used to detect the p15E-MHC class I restricted T cell receptor."}, "huPD-L1/MC38 cells": {"test_system": "huPD-L1/MC38 cells", "assay": "huPD-L1 MC38 tumor model, combination with oxaliplatin", "assay_type": "in vivo, mouse", "description": "To test the anti-tumor activity of the exemplary variant, it was evaluated alone or in combination with the platinum-based chemotherapeutic agent, oxaliplatin, in mice bearing human PD-L1-expressing MC38 tumors, which is a syngeneic mouse colon carcinoma solid tumor model.\nThe huPD-L1 MC38 cell line was generated by transducing parental MC38 cells with huPD-L1 using viral transduction. Eight-week old female C57/BL6NJ mice (The Jackson Laboratories, Sacramento, Calif.) were implanted subcutaneously with 0.5×10^6 huPD-L1/MC38 cells. For injections, 0.1 mL of cells (0.5×10^6 cells) were injected subcutaneously (SC) in the right mid-flank region.\nOn day 1, mice were randomized into four groups of 10 mice each, with all mice in each group having about equal mean tumor volumes (˜108 mm^3). Tumors were measured with electronic calipers two-dimensionally twice weekly, beginning on day 7 post-tumor cell implant (referred to as “day 1”). Tumor volume was calculated as length×(width×2)×0.5, with the length being the longer of the two measurements.\nAs shown, 30% of the mice in the monotherapy group were tumor free by the end of the study."}, "huPD-L1/B16-F10 cells": {"test_system": "huPD-L1/B16-F10 cells", "assay": "huPD-L1/B16-F10 melanoma model", "assay_type": "in vivo, mouse", "description": "This variant is an exemplary variant identified to have increased binding affinity for PD-L1 compared to wild-type CD80 and activity to block PD-L1 and CTLA-4 and to provide PD-L1-dependent T cell activation via CD28 costimulatory receptor. To test the anti-tumor activity of the exemplary variant, it was evaluated alone or in combination with an anti-mouse PD-1 monoclonal antibody (clone RMP1-14, rat IgG2a) in mice bearing human PD-L1 (huPD-L1)-expressing B16-F10 tumors, which is a syngeneic mouse melanoma model. This model is an aggressive and, in many cases, a treatment-resistant model.\nSubconfluent cells (˜80% confluent) were harvested on the day of implantation (study day 0). The cells were washed twice and brought to a final concentration of 5×10^6 cells/mL in DPBS. Female C57BL/6NJ mice (Jackson Labs, USA) were implanted subcutaneously with approximately 0.5×10^6 huPD-L1/B16-F10 cells. […] The B16-F10 cells at time of implant were evaluated to confirm expression of huPD-L1 by flow cytometry. […]\nTumors were measured with electronic calipers two-dimensionally twice weekly, beginning on day 6 post-tumor cell implant. Tumor volume was calculated as length×(width×2)×0.5, with the length being the longer of the two measurements. […] Calculations for the mean and median were determined on the last day in which at least 70% of mice were alive on study (day 18 post-tumor cell implant)."}, "[2]": {"test_system": "primary human pan T cells", "assay": "Cytokine production following PD-L1-dependent costimulation", "assay_type": "cell-based", "settings": "mitomycin-c treated K562/OKT3/PDL1 aAPC; FIG. 6"}, "[3]": {"settings": "in combination with oxaliplatin"}},
  "data": [
    {"substance": "H18Y/A26E/E35D/M47L/V68M/A71G/D90G: variant CD80 IgV-Fc (inert), IgV SEQ ID NO:491", "values": [
      {"measurement": "CL", "setting": "Monkey PK model", "result": 1.31, "unit": "mL/h/kg"},
      {"measurement": "F", "setting": "Monkey PK model", "result": 66.4, "unit": "%"},
      {"measurement": "Ka", "setting": "Monkey PK model", "result": 0.728, "unit": "day⁻¹"},
      {"measurement": "Q", "setting": "Monkey PK model", "result": 4.37, "unit": "mL/h/kg"},
      {"measurement": "V1", "setting": "Monkey PK model", "result": 0.0509, "unit": "L/kg"},
      {"measurement": "V2", "setting": "Monkey PK model", "result": 0.158, "unit": "L/kg"},
      {"measurement": "percent of p15E-specific CD8+ T cells in tumors", "setting": "[1]; 500 or 1500 μg IP or 100 μg IT, day 11", "result": "significantly greater percent of p15E-specific CD8+ T cells as compared to Fc control-treated mice"},
      {"measurement": "anti-tumor growth activity", "setting": "[1]; IT injection 100 μg on days 8, 11 and 14", "result": "substantial anti-tumor growth activity"},
      {"measurement": "anti-tumor activity (tumor volume)", "setting": "[1]; single IP injection 100, 500, 1500 μg", "result": "dose-dependent increase in anti-tumor activity compared to Fc control treatment"},
      {"measurement": "tumor free mice", "setting": "huPD-L1/MC38 cells; [3]", "result": 90, "unit": "%"},
      {"measurement": "tumor growth over time", "setting": "huPD-L1/MC38 cells; [3]", "result": "significantly greater reductions in tumor growth over time were observed than with either of the agents alone"},
      {"measurement": "mean TGI", "setting": "huPD-L1/MC38 cells; in combination with oxaliplatin, day 25", "result": "~100", "unit": "%"},
      {"measurement": "median tumor volume", "setting": "huPD-L1/MC38 cells; in combination with oxaliplatin, eleven days after start of dosing", "result": "dropped to zero"},
      {"measurement": "antitumor activity", "setting": "huPD-L1/MC38 cells; monotherapy", "result": "had potent antitumor activity"},
      {"measurement": "tumor free mice by the end of the study", "setting": "huPD-L1/MC38 cells; monotherapy", "result": 30, "unit": "%"},
      {"measurement": "tumor growth inhibition", "setting": "huPD-L1/B16-F10 cells; in combination with anti-PD-1 mAb, day 18", "result": 92, "unit": "%"},
      {"measurement": "tumor growth (median tumor volumes)", "setting": "huPD-L1/B16-F10 cells; in combination with anti-mouse PD-1 mAb, IP days 6, 8, 11", "result": "significantly reduced tumor growth"},
      {"measurement": "IL-2 secretion in culture supernatants", "setting": "[2]", "result": "resulted in IL-2 secretion in culture supernatants"}
    ]}
  ]
}
